# Source: US8748480B2, “Methods for treating opioid tolerance” (priority 2005, dated 2014)
# Where two headings read alike, the source gives them in different places. No end group written: not given here.
# What was measured:
# [1] = biological target: T1, Gβγ (protein interaction site of Gβ) (Rattus norvegicus, UniProt P54311); test: Phage ELISA: small molecules competing with SIGK-phage binding to immobilized biotinylated Gβγ
# T1 construct: made in house; host or cells: Sf9 insect cells (baculovirus), co-expressed with BirA and (His)6-Gαi1
# Description: Exemplary compounds of the present invention were initially selected from a computational screen to identify ligands that bind to the novel protein interaction site of Gβ. The computational screen involved using SYBYL molecular modeling software to model the protein interaction site of Gβ as determined in the X-ray structure disclosed herein. The computational docking screen was performed with the National Cancer Institute 1900 compound library wherein the compounds were tested for docking to the protein interaction site of Gβ using FLEXX™ (Tripos, Inc., St. Louis, Mo.) for docking and CSCORE™ (Tripos, Inc.) to evaluate the energetics and fitness of the docked structure. Algorithm-dependent lists of compounds, predicted to interact with the protein interaction site of Gβ and the structural model of the interaction, were generated. Selected compounds were subsequently analyzed in the phage ELISA binding assay disclosed herein to assess whether these compounds could bind to the protein interaction site of Gβ and interfere with protein interactions at this surface.
# Wild-type Gβ1 and Gβ1 mutants were made in the baculovirus vector PDW464 which encodes a biotinylation site at a lysine upstream of the amino terminus of Gβ1 (Goubaeva, et al. (2003) supra). Mutants were generated by overlap extension PCR using standard protocols. The wild-type and mutant Gβ1 constructs consisted of a 20 amino acid biotin acceptor peptide (BAP) sequence fused in-frame with the amino-terminus of rat Gβ1 subunit. When coexpressed with biotin holoenzyme synthetase (BirA) in Sf9 cells, the Gβ1 subunit becomes covalently biotinylated in vivo at the Specific lysine acceptor residue in the BAP.
# Phage ELISA assays used to assess peptide binding to wild-type and mutant b-βγ were performed according to standard methods (Smrcka and Scott (2002) Methods Enzymol. 344:557-76). Briefly, 1 μg streptavidin was immobilized in the well of a […] overnight at 4° C. The wells were blocked with 100 μL of 2% bovine serum albumin (BSA) in Tris-buffered saline (TBS) for 1 hour at 4° C. followed by three washes of 1×TBS/0.5% TWEEN®. […] The wells were washed, followed by the addition of 1×10^6 to 1×10^10 phage particles and incubated at 4° C. for 3 hours. The wells were then washed six times with TBS/0.5% TWEEN® followed by addition of 40 μL of 1:5000 dilution of anti-M13 antibody (Pharmacia, Uppsala, Sweden) and incubated at room temperature for 1 hour. The wells were washed, followed by the addition of 40 μL of (2,2′-Azino-bis(3-ethylbenzthiazoline)-6-sulfonic acid (ABTS) and the colorimetric reaction was monitored at 405 nm. Non-specific binding was subtracted for each reading.
# A phage ELISA assay was used to determine whether small molecules identified in the computational screen could interact with the Gβγ protein interaction surface. […] The screen was based on a reduction in the optical density (OD) of wells containing Gβγ subunits and phage. […] Three background wells contained no βγ subunits.
# As disclosed herein, biotinylated Gβγ subunits were immobilized on the surface of a 96-well plate coated with streptavidin, phage displaying Gβγ-binding peptides were subsequently added and binding in the presence and absence of test compounds detected with an anti-phage antibody.
# PLC-β3 = test: Purified PLC-β3 activation by purified βγ (FIG. 6); type: biochemical; conditions: purified PLC-β3 with purified βγ
# Description: (§1) FIG. 6 is a bar graph illustrating inhibition of PLC-β2 and PLC-β3 activation in the presence of exemplary compounds of the instant invention.
# (§2) The ability of NSC119910 analogs to selectively modulate activation PLC-β2 and -β3 was analyzed. In this assay, PLC-β2 and PLC-β3 were purified and PLC enzymatic activity was measured in the presence or absence of purified βγ and in the presence or absence of analog.
# [2] = test system: fMLP-dependent ERK activation; test: fMLP-dependent ERK activation; type: cell-based
# [3] = biological target: T2, Fαi1·b-Gβ1γ2 heterotrimer (Rattus norvegicus, UniProt P54311); test: Flow cytometry dissociation of Fαi1 from preformed heterotrimer with b-Gβ1γ2; type: binding; conditions: peptide added to preformed Fαi1·b-Gβ1γ2
# T2 construct: made in house; host or cells: Sf9 insect cells (baculovirus) for b-Gβ1γ2
# Description: (§3) Fluorescein-labeled Gαi1 (Fαi1) was prepared in accordance with standard methods (Sarvazyan, et al. (1998) supra). Assays were used to determine peptide effects on Gα-Gβγ interactions included competition and dissociation assays (Ghosh, et al. (2003) supra). Briefly, for competition-based assays, 100 pM Fαi1 and indicated concentrations of peptides were added to 50 pM b-Gβ1γ2 immobilized on 10^5 beads per mL and incubated at room temperature for 30 minutes to reach equilibrium. The bead-associated fluorescence was then recorded in a BD Biosciences FACSCALIBUR™ flow cytometer. Data was corrected for background fluorescence and fit with a sigmoid dose response curve using Graph Pad Prism 4. To measure dissociation of Fαi1 from b-Gβ1γ2, 100 pM of Fαi1 was incubated with 50 pM immobilized b-Gβ1γ2 at room temperature for 15-20 minutes. The fluorescence of bound Fαi1 subunit was measured, followed by the addition of a 200-fold excess of unlabeled Gαi1 or peptides and the amount of Fαi1 remaining bound to the beads was measured at the indicated times.
# PLC β2 = conditions: cited from earlier work
# Mice = test: 55° C. warm-water tail-flick test, intracerebroventricular injection; type: in vivo; conditions: 100 nmol NSC119910 i.c.v. with morphine
# Description: Opioid receptors, μ, Δ, and κ, couple to Gi and Go proteins through α and βγ subunits, and regulate a number of signaling pathways. […] Mice were tested 20 minutes after the injection for an analgesic response in a 55° C. warm-water tail-flick test (Wells, et al. (2001) J. Pharmacol. Exp. Therapeut. 297:597-605).
# Gβγ subunits = Gβγ subunits (Rattus norvegicus, UniProt P54311); test: Gα subunit-Gβγ interaction (FIG. 2); type: binding
# Description: FIG. 2 is a graph illustrating that NSC119910 binds to Gβγ and interferes with physiologically relevant protein interactions such as with the Gα subunit.
# as §3
# [4] = test system: differentiated HL-60 neutrophil; test: Cytosolic Ca2+ in agonist-activated neutrophils (fura-2); type: cell-based
# Description: FIG. 4 is a bar graph depicting the peak cytosolic Ca^2+ concentrations for neutrophils activated with fMLP or ATP agonists in the presence or absence of 10 μM NSC119910. fMLP, n=3; ATP, n=2.
# Gβγ-regulated activities of PI3Kγ and PLC-β2/-β3 are important in chemoattractant-induced responses and inflammation. PI3Kγ is involved in the production of TI-IgλL and mice deficient in PI3Kγ, lack neutrophil migration (Li, et al, (2000) Science 287:1046-9). The PLC pathway is involved in down-modulation of chemotaxis and in hyperinflammatory conditions (Li, et al. (2000) supra). Therefore, it was determined whether NSC119910 could inhibit the Gβγ/PLC interaction and block PLC activation.
# Ca^2+ fluxes were measured using two 35 mL cultures of differentiated HL-60 neutrophil cultures (0.2×10^6 cells/mL). Cells were cultured for three days with in DMSO (1.2%), washed in HSS and resuspended in 2 mL HBSS at a concentration of 7×10^6 cells/mL. Addition of DMSO to the growth medium induces differentiation of these cells into morphologically and functionally mature neutrophils (Collins, et al. (1978) Proc. Natl. Acad. Sci. USA 75:2458; Collins, et al., (1979) J. Exp. Med. 149:969). Neutrophils were preloaded with fura-2 (1 μM), a fluorescent Ca^2+-sensitive indicator (Suh, et al., (1996) J. Biol. Chem. 271:32753), for 45 minutes, washed with HBSS and resuspended in 2 mL of indicator-free HBSS. An 140 μL aliquote of cells was added to a total of 2 mL HBSS. Fluorescence ratios were taken by dual excitation at 340 and 380 nm and emission at 510 nm. After a stable baseline was established, either DMSO or NSC119910 was added and incubated for 5 minutes. Subsequently, either fMLP or ATP agonists were added to activate release of Ca^2+ from intracellular stores.
# PLC β = test: Phospholipase C-Gβγ interaction, PLC enzymatic activity (FIG. 3); type: biochemical; conditions: in vitro
# Description: FIG. 3 is a graph illustrating the inhibition of phospholipase C-Gβγ interactions by NSC119910. Phospholipase enzymatic activity was determined using well-established methods (Ghosh and Smrcka (2003) Meth. Mol. Biol. 237:67-75).
# [5] = test system: voltage-gated N-type Ca++ channel; conditions: cited from earlier work
# PI3K = conditions: cited from earlier work
# type I adenylyl cyclase = conditions: cited from earlier work
# PLC-β2 = test: Purified PLC-β2 activation by purified βγ (FIG. 6); type: biochemical; conditions: purified PLC-β2 with purified βγ
# Description: as §1, §2
compound,measurement,setting,value
O=C1c2ccccc2C(=O)c2c(Nc3cc4c5c(ccc6c7ccc8c9c(cc(Nc%10cccc%11c%10C(=O)c%10ccccc%10C%11=O)c(c3c56)c97)-c3ccccc3C8=O)C(=O)c3ccccc3-4)cccc21 [NSC23128],IC50,[1]; read-out: IC50,16000 nM
N[C@H]1CCc2cc(O)c(O)c(O)c2-c2ccc(O)c(=O)cc21 [NSC201400],PLC-β3 activation,PLC-β3,selectively potentiated
same,IC50,[1]; read-out: IC50,100 nM
same,fMLP-dependent ERK activation,[2],do not interfere
Ic1ccc2c(c1)N(c1ccccc1)c1cc(Nc3ccc4nc5ccc(I)cc5[n+](-c5ccccc5)c4c3)ccc1N2 [NSC402959],IC50,[1]; read-out: IC50,2000 nM
CC[C@H](C)[C@H](NC(=O)[C@H](CC(N)=O)NC(=O)[C@H](CC(C)C)NC(=O)[C@H](C)NC(=O)[C@H](C)NC(=O)[C@H](CCCNC(=N)N)NC(=O)[C@@H](NC(=O)[C@@H](N)CO)[C@@H](C)CC)C(=O)N[C@@H](CC(C)C)C(=O)NCC(=O)N[C@@H](Cc1ccc(O)cc1)C(=O)N1CCC[C@H]1C(=O)N[C@@H](CC(=O)O)C(=O)N[C@@H](Cc1ccc(O)cc1)C(=O)N[C@@H](CC(=O)O)C(=O)O [SIRK(Lys4Ala)],dissociation of a preformed heterotrimer,[3],failed to accelerate heterotrimer dissociation
SIRKALNILAYPDYD [SIRK(Gly10Ala)],change of IC50 relative to wild-type SIRK peptide,PLC β2; inhibition of PLC β2 activation by Gβ1γ2,12 fold
same,dissociation of a preformed heterotrimer,[3],could still accelerate heterotrimer dissociation
CCc1cc2c(c3ccc(C(=O)CBr)cc13)CCCC2 [NSC30820],IC50,[1]; read-out: IC50,100 nM
C[C@H](NC(=O)[C@H](CS)NC(=O)[C@@H](N)CO)C(=O)N[C@@H](CCCNC(=N)N)C(=O)N[C@@H](Cc1ccccc1)C(=O)N[C@@H](Cc1ccccc1)C(=O)NCC(=O)N[C@H](C(=O)N1CCC[C@H]1C(=O)NCC(=O)N[C@@H](CS)C(=O)N[C@H](C(=O)O)[C@@H](C)O)[C@@H](C)O [SCAR],dissociation of a preformed heterotrimer,[3],could not promote dissociation
O=C(O)C1CC2C3(Cl)C(Cl)=C(Cl)C(Cl)C2(CC1c1c2ccc(=O)c(O)c-2oc2c(O)c(O)ccc12)C3(Cl)Cl (stereo not shown) [NSC158110],fMLP-dependent ERK activation,[2],do not interfere
Nc1ccc(-c2ccc(Nc3cc(S(=O)(=O)O)c(N)c4c3C(=O)c3ccccc3C4=O)cc2)c(S(=O)(=O)O)c1 [NSC125910],IC50,[1]; read-out: IC50,68000 nM
O=C(O)C1CCCCC1c1c2ccc(=O)c(O)c-2oc2c(O)c(O)ccc12 (stereo not shown) [NSC119910],shift to the left in morphine dose-response curve,Mice,11 fold
same,interactions of Gα subunit with Gβγ subunits,Gβγ subunits,blocked
same,IC50,[1],100 nM
same,Ca2+ mobilization,[4],block
same,time taken for fluorescence to decline to half-peak values,"[4]; 10 μM compound, fMLP or ATP (FIG. 5)",not substantially affected
same,increase in [Ca2+],"[4]; ATP-stimulated neutrophils, 10 μM compound",not significantly suppressed
same,increase in cytosolic Ca2+,"[4]; fMLP-stimulated neutrophils, 10 μM compound",suppressed
same,fMLP-dependent ERK activation,[2],without interfering
same,"PLC β-Gβγ interaction, enzymatic activity of PLC β",PLC β,inhibited
CC[C@H](C)[C@H](NC(=O)[C@H](CC(N)=O)NC(=O)[C@H](CC(C)C)NC(=O)[C@H](C)NC(=O)[C@H](CCCCN)NC(=O)[C@H](CCCNC(=N)N)NC(=O)[C@@H](NC(=O)[C@@H](N)CO)[C@@H](C)CC)C(=O)N[C@@H](CC(C)C)C(=O)NCC(=O)N[C@@H](Cc1ccc(O)cc1)C(=O)N1CCC[C@H]1C(=O)N[C@@H](CC(=O)O)C(=O)N[C@@H](Cc1ccc(O)cc1)C(=O)N[C@@H](CC(=O)O)C(=O)O [SIRK],Gβ1γ2 regulation of voltage-gated N-type Ca++ channel activity,[5],little or no effect
same,activation of PI3K,PI3K,blocked
same,IC50,PLC β2; read-out: IC50 for inhibition of PLC β2 activation by Gβ1γ2,5 µM
same,Gβ1γ2 regulation of type I adenylyl cyclase,type I adenylyl cyclase,little or no effect
same,dissociation of a preformed heterotrimer,[3],promotes dissociation
Nc1c(S(=O)(=O)O)cc(Nc2cccc(S(N)(=O)=O)c2)c2c1C(=O)c1ccccc1C2=O [NSC117079],IC50,[1]; read-out: IC50,43000 nM
O=C(O)c1cccc2cccc(-c3c4ccc(=O)c(O)c-4oc4c(O)c(O)ccc34)c12 [NSC119893],Ca2+ mobilization,[4],block
same,fMLP-dependent ERK activation,[2],without interfering
O=C(O)/C=C/c1c2ccc(=O)c(O)c-2oc2c(O)c(O)ccc12 [NSC119911],PLC-β2 activation,PLC-β2,block PLC-β2 activation more effectively than PLC-β3 activation
same,fMLP-dependent ERK activation,[2],do not interfere
